From ChEMBL document CHEMBL1151007, “Synthesis and in vitro cytotoxicity of (RS)-20-desethyl-20-substituted camptothecin analogues” (Bioorg Med Chem Lett, 1996)

Key:
Format in all cases: functional, cell-based
[1] = tested on: A 172; assay: In vitro cytotoxicity against A172 human tumor cell lines.
[2] = tested on: Caov-3 cell line; assay: In vitro cytotoxicity against CAOV-3 human tumor cell line.
[3] = tested on: DLD-1; assay: In vitro cytotoxicity against DLD-1 human tumor cell lines.
[4] = tested on: KATO III stomach cancer cell line; assay: In vitro cytotoxicity against KATO-III human tumor cell line.
[5] = tested on: L1210; assay: In vitro cytotoxicity against L1210 mouse leukemia tumor cell line.

Row | SMILES | IC50 [1] [µM] | IC50 [2] [µM] | IC50 [3] [µM] | IC50 [4] [µM] | IC50 [5] [µM]
1 | COCC(=O)OCCC1(O)C(=O)OCc2c1cc1n(c2=O)Cc2cc3ccccc3nc2-1 (stereo not given) | 6.99 | 6.39 | 31.8 | 3.05 | 24.5
2 | O=C1OCc2c(cc3n(c2=O)Cc2cc4ccccc4nc2-3)C1(O)CCO (stereo not given) | 4.47 | 6.31 | 2.5 | 9.72 | 6.31
3 | CCOCOCCC1(O)C(=O)OCc2c1cc1n(c2=O)Cc2cc3ccccc3nc2-1 (stereo not given) | 1.37 | 1.85 | 1.07 | 19.3 | 1.42
4 | COCCOCOCC1(O)C(=O)OCc2c1cc1n(c2=O)Cc2cc3ccccc3nc2-1 (stereo not given) | 4.38 | 6 | 25.8 | 83.5 | 22.2
5 | O=C(Nc1ccccc1)OCCC1(O)C(=O)OCc2c1cc1n(c2=O)Cc2cc3ccccc3nc2-1 (stereo not given) | 0.06 | 3.72 | 1.2 | 5.38 | 6.87
6 | CC(=O)OCCC1(O)C(=O)OCc2c1cc1n(c2=O)Cc2cc3ccccc3nc2-1 (stereo not given) | 3.99 | 4.23 | 7.04 | 0.98 | 5.09
7 | CC(=O)OCC1(O)C(=O)OCc2c1cc1n(c2=O)Cc2cc3ccccc3nc2-1 (stereo not given) | 1.53 | 0.82 | 1.22 | 9.43 | 1.71
8 | COCC(=O)OCC1(O)C(=O)OCc2c1cc1n(c2=O)Cc2cc3ccccc3nc2-1 (stereo not given) | 17.6 | 12.9 | 47.1 | > 100 | 13.6
9 | O=C1OCc2c(cc3n(c2=O)Cc2cc4ccccc4nc2-3)C1(O)CO (stereo not given) | 7.19 | 2.17 | 17.8 | 11.5 | 3.97
10 | COCOCC1(O)C(=O)OCc2c1cc1n(c2=O)Cc2cc3ccccc3nc2-1 (stereo not given) | 8.39 | 4 | 2.41 | 23.2 | 1.65
11 | O=C(Nc1ccccc1)OCC1(O)C(=O)OCc2c1cc1n(c2=O)Cc2cc3ccccc3nc2-1 (stereo not given) | 2.77 | 1.58 | 4.24 | 13.1 | 2.77
12 | COCCOCOCCC1(O)C(=O)OCc2c1cc1n(c2=O)Cc2cc3ccccc3nc2-1 (stereo not given) | 4.04 | 1.92 | 15.1 | 53 | 4.97
13 | CCOCOCC1(O)C(=O)OCc2c1cc1n(c2=O)Cc2cc3ccccc3nc2-1 (stereo not given) | 11.1 | 17.6 | 17.1 | 40.7 | 3.4
14 | CC(C)NC(=O)OCC1(O)C(=O)OCc2c1cc1n(c2=O)Cc2cc3ccccc3nc2-1 (stereo not given) | 11.2 | 22.5 | 23.4 | 72.3 | 5.97
15 | CC(C)NC(=O)OCCC1(O)C(=O)OCc2c1cc1n(c2=O)Cc2cc3ccccc3nc2-1 (stereo not given) | 5.25 | 1.42 | 11 | 46.5 | 9.41
